System: Human umbilical vein endothelial cells (HUVEC)
Test: Evaluation of NO-production-promoting activity (NO2/NO3 Assay Kit-FX)
Assay type: cell-based
Details: 24 hours, sample solution 10 to 1000 μg/mL in medium containing 1% DMSO, culture supernatant
Procedure: The purple-tea sample and the GHG sample obtained in the above example were dissolved in a medium containing 1% DMSO (concentration: 10 to 1000 μg/mL) to prepare a sample solution. A medium containing 1% DMSO was used for a control.
Human umbilical vein endothelial cells (HUVEC) (6.2×10^4 cells/500 μL) were seeded in 24-well plates, pre cultured for 1 day, then the medium was changed (450 μl). After that, a sample solution of 50 μL was added to each well to react for 24 hours. After the reaction, the culture supernatant was subjected to a measurement of a NO-production amount. For the measurement of the NO-production amount, “NO2/NO3 Assay Kit-FX” (trade name, manufactured by Dojindo Molecular Technologies, Inc.) was used. The results are shown in FIG. 2 (purple-tea extract) and FIG. 3 (GHG).
The NO2/NO3 Assay Kit-FX is a kit used for indirectly measuring NO in a sample by the fluorescence method, using the reaction between NO2^− and DAN (2,3-Diaminonaphthalene).

## O=C(OC1OC2COC(=O)c3cc(O)c(O)c(O)c3-c3c(cc(O)c(O)c3O)C(=O)OC2C(O)C1OC(=O)c1cc(O)c(O)c(O)c1)c1cc(O)c(O)c(O)c1 [GHG, 1,2-di-O-galloyl-4,6-O-(S)-hexahydroxydiphenoyl-β-D-glucose]
  NO-production promoting effect (NO2−, NO3− and NO total production): has a NO3− and a NO-total production-promoting effect

Reference: patent US20230190854A1, “METHOD OF REDUCING MUSCLE DAMAGE ASSOCIATED WITH INTENSIVE EXERCISE BY ADMINISTERING PURPLE-TEA EXTRACT” (ORYZA OIL & FAT CHEMICAL CO., LTD., priority 2020, published 2023)
